This is an account of results in patent US9192670B2, “Regulation of amyloid beta molecular composition for the treatment of alzheimer's disease” (Ramot at Tel-Aviv University Ltd., priority 2011, dated 2015).

For experiment [1], the system named is hippocampal slices. As to the kind of experiment: Extracellular Aβ40/Aβ42 by sandwich ELISA in acute hippocampal slices stimulated by single spikes or spike bursts. It is filed as cell-based, rat.
Experiment [2] deals with CA3-CA1 connections. As to the kind of experiment: fEPSP/EPSC recordings in CA3-CA1 connections of hippocampal slices. The format is cell-based, rat.
The subject of experiment [3] is CFP-PS1-YFP. The format is cell-based, rat.
Experiment [4] concerns rat hippocampal cultures. The format is cell-based.
For experiment [5] the following is noted: in vivo; cited from earlier work.
Experiment [6] has as its system APP/PS1 hippocampal slices. As to the kind of experiment: Extracellular Aβ40/Aβ42 by ELISA in APP/PS1 hippocampal slices, single spikes or spike bursts. The format is cell-based, mouse.
For experiment [7], the system named is human cortical slices. As to the kind of experiment: fEPSP recordings in human cortical slices. The format is cell-based. To be noted: RS-baclofen 20 μM. How it is done: (§1) Human slices were subjected to 1 hour stimulations by single spikes or spike bursts as described for experiments in rodents herein above (each burst contains 5 APs, inter-spike-interval 10 ms, inter-burst interval 5 s) in ACSF in the presence of 50 μM AP-5 for blocking postsynaptic excitatory NMDA receptors. Following stimulation, [Aβ40]o and [Aβ42]o in ACSF were measured by sandwich ELISA. Extracellularly recorded field EPSPs (fEPSPs) were used to assess short-term synaptic plasticity.

Experiment [8] deals with APP. As to the kind of experiment: Western blot of APP processing in APP/PS1 hippocampal slices. The format is cell-based, mouse. To be noted: APP/PS1 slices before and after pre-treatment with baclofen. The text has this: Immunoblot Analysis. At the end of each stimulation, hippocampal slices were homogenized and prepared for the detection of full-length APP, soluble APP and APP-C terminal fragment (APP-CTF) by western blotting as described previously^18. Full length APP and soluble APP was probed using anti-APP 22C11 monoclonal antibody (Millipore, Temecula, Calif., 1:2000). In APP/PS1 slices, APP-bCTF was detected using 82E1 monoclonal antibody (IBL, Japan, 1:200). Both 22C11 and 82E1 probing were followed by goat anti-mouse HRP conjugated secondary antibody (Jackson ImmunoResearch, West Grove, Pa., 1:5000). APP-aCTF was detected using rabbit anti-APP-CTF antibody (Millipore, Temecula, Calif., 1:10,000) followed by goat anti-rabbit HRP conjugated secondary antibody (Jackson ImmunoResearch, West Grove, Pa., 1:5000). Following detection, blots were stripped with Restore™ Western Blot Stripping Buffer (Pierce, Thermo Scientific, Rockford, Ill.) and then re-probed with mouse anti-actin (SIGMA, Israel, 1:10,000) and HRP-conjugated goat anti-mouse (1:5000) antibodies as a loading control protein. All proteins were visualized by SuperSignal® West Pico Chemiluminescent (Pierce; Thermo Scientific, Rockford, Ill.). Densitometry was performed using the ImageJ Analysis software, and each band was normalized to its actin signal.

Experiment [9] deals with CA3-CA1 connections. As to the kind of experiment: fEPSP recordings in CA3-CA1 connections of APP/PS1 hippocampal slices. It is filed as cell-based, mouse.
Experiment [10] concerns human hippocampal slices. As to the kind of experiment: Extracellular Aβ40/Aβ42 by ELISA in human hippocampal slices, single spikes or spike bursts. The format is cell-based. To be noted: RS-baclofen 20 μM. How it is done: as §1
Experiment [11] has as its system CA3-CA1 connections. As to the kind of experiment: fEPSP recordings in CA3-CA1 connections of human hippocampal slices. The format is cell-based. To be noted: RS-baclofen 20 μM. How it is done:
as §1

The test system of experiment [12] is human cortical slices. As to the kind of experiment: Extracellular Aβ40/Aβ42 by ELISA in human cortical slices, single spikes or spike bursts. The format is cell-based. To be noted: RS-baclofen 20 μM. How it is done: as §1
[13] abbreviates: 20 mM gabazine, 1 h at 37° C., blocking GABAA receptors.
Where [14] appears, read: baclofen 1 μM, 3 h, APP/PS1 slices.

Entries after “also recorded” stand apart in the source; their conditions may differ. Where two headings read alike, the source gives them in different places.

As for `CC(=O)OCOC(=O)CN(CCOCCOCCN(CC(=O)OCOC(C)=O)CC(=O)OCOC(C)=O)CC(=O)OCOC(C)=O` [EGTA-AM], in experiment [1], the Aβ40/42 pattern dependency entry is given as “abolished”, the “Aβ40/42 ratio associated with burst patterns” value is “decreased”, the Aβ40 burst/single ratio entry is listed as “reduced” and the “[Aβ40]o during spike bursts” value is “reduced”. Also, in experiment [1], the “[Aβ42]o during either single spikes or bursts” value was “did not affect” and the “burst/single ratio of Aβ42” value is “did not affect”. For the same compound, in experiment [2], the “EPSCs evoked by single spikes reduced by” value came out at 20%, the “burst/single ratio of EPSC charge transfer per spike (QEPSC)” value is “lower” and the “synaptic facilitation of EPSCs reduced by” value is on record as 70%.
Consider `[Cd]` [cadmium], for which, in experiment [1], the Aβ40/42 pattern dependency entry was “abolished”; the Aβ40/42 ratio entry is on record as “decreased”; the Aβ40 burst/single ratio entry is listed as “reduced”; the “[Aβ40]o reduced by, during single spikes” value turned out to be 67%. Besides, in experiment [1], the “[Aβ40]o reduced by, during spike bursts” value turned out to be 77%; the “[Aβ42]o at either stimulation pattern” value is given as “did not alter”; the “burst/single ratio of Aβ42” value is recorded as “did not affect”. In addition, the synaptic transmission result in experiment [2] was “completely blocked”.
`C[C@@H](NC(=O)c1cc(C(=O)N[C@@H](Cc2ccccc2)[C@H](O)CNC2CC2)cc(N(C)S(C)(=O)=O)c1)c1ccccc1` [BACE1 inhibitor IV]: in experiment [1], the “[Aβ40]o in pretreated slices” value is given as “negligible” and the “[Aβ42]o in pretreated slices” value is on record as “negligible”.
Consider `OC[C@H]1O[C@@H](n2cnc3c(NC4CCCC4)nc(Cl)nc32)[C@H](O)[C@@H]1O` [CCPA, 2-Chloro-N-cyclopentyladenosine], for which, in experiment [1], the “Aβ40/42 during periods of high-frequency burst firing” value (from here on “Aβ40/42 during periods”) is listed as “boosting”, the “Aβ40 pattern dependency (burst/single ratio)” value was “rescued”, the Aβ42 burst/single ratio result is on record as “unaltered” and the “[Aβ40]o during single spikes” value was “decreased”. Also, in experiment [1], the “[Aβ40]o during spike bursts” value is recorded as “increasing” and the “pattern dependency of the Aβ40/42 ratio” value is “restored”. In [2], the basal synaptic transmission result is reported as “rescued”, the “burst/single ratio of fEPSP charge transfer per spike (QfEPSP)” value (“burst/single ratio … per spike (QfEPSP)” for short) is reported as “rescued”, the “short-term facilitation (relative slopes of fEPSPs within the burst)” value is reported as “rescued” and the “slope of linear fit of input-output relationship (stimulation amplitude vs slope of fEPSP)” value is recorded as 0.49±0.03.
For `NC1=N[C@H](O)[C@H]2[C@H]3O[C@]4(O)O[C@@H]([C@@H](O)[C@@]2(N1)[C@@H]4O)[C@]3(O)CO` [tetrodotoxin], in experiment [3], the “CFP-PS1-YFP FRET efficiency” value was “did not change” and the “FYFP/FCFP (FR)” value is “not affected”. Moreover, in experiment [4], the “[Aβ40]o reduced by” value stood at 34% and the “[Aβ42]o reduced by” value is reported as 31%. Moreover, the “elimination rate of total Aβ” value in [5] was “lack of TTX effect”.
For ω-conotoxin GVIA [ω-CgTx], in experiment [1], the “Aβ40/42 during periods” value is “boosting”, the “Aβ40 pattern dependency (burst/single ratio)” value is listed as “rescued”, the Aβ42 burst/single ratio entry is reported as “unaltered” and the “[Aβ40]o during single spikes” value was “decreased”. Moreover, in experiment [1], the “[Aβ40]o during spike bursts” value is on record as “increasing” and the “pattern dependency of the Aβ40/42 ratio” value was “restored”. In experiment [2], the basal synaptic transmission result is “rescued”, the “burst/single ratio … per spike (QfEPSP)” value is given as “rescued”, the “short-term facilitation (relative slopes of fEPSPs within the burst)” value is reported as “rescued” and the “slope of linear fit of input-output relationship (stimulation amplitude vs slope of fEPSP)” value is recorded as 0.82±0.03.
Regarding `COc1ccc(-c2ccc(=N)n(CCCC(=O)O)n2)cc1` [gabazine], in experiment [4] (setting [13]), the “[Aβ40]o increased by” value was 93.5% and the “[Aβ42]o increased by” value stood at 103%.
With `NCC(CC(=O)O)c1ccc(Cl)cc1` (stereo not drawn) [baclofen], in [6], the “Aβ40/42 ratio associated with burst patterns” value is on record as “increased”, the “[Aβ40]o during single spikes” value is on record as “did not affect”, the “[Aβ42]o during either single spikes or bursts” value is given as “did not affect” and the “burst/single ratio of Aβ42” value is on record as “did not affect”. For the same compound, in [6], the “pattern dependency of the Aβ40/42 ratio” value is on record as “rescued” and the “reduction in the Aβ40 burst/single ratio” value is recorded as “rescued”. In addition, the “[Aβ40]o during bursts” value in experiment [6] (setting [14]) is given as “increased”. In [1], the “Aβ40/42 during periods” value was “boosting”, the “Aβ40 pattern dependency (burst/single ratio)” value is “rescued”, the Aβ42 burst/single ratio result was “unaltered” and the “[Aβ40]o during spike bursts” value is recorded as “increasing; also recorded: increased”. In experiment [1], the “[Aβ42]o during either single spikes or bursts” value is recorded as “did not affect”; the “difference between the Aβ40/42 ratio associated with single and burst patterns” value was “restored”; the “pattern dependency of the Aβ40/42 ratio” value is “restored”. The “pattern dependency of Aβ40” value in experiment [1] (3 h pre-incubation, CGP54626 10 μM, baclofen 1 μM in ↑Ca/Mg-slices) was “rescued”. Also, the “FYFP/FCFP (FR) on changing stimulation pattern from single spikes to spike bursts” value in experiment [3] is “not affected”. The short-term synaptic depression result in [7] is on record as “reduced”. For the same compound, in [8], the “burst/single ratio of FL-APP” value is given as “no significant differences” and the “burst/single ratio of βCTF” value is on record as “no significant differences”. Moreover, in experiment [9], the “burst/single ratio … per spike (QfEPSP)” value was “reversed” and the “slope of linear fit of input-output relationship (stimulation amplitude vs slope of fEPSP)” value was found to be 0.95±0.06. Also, the “reduction in short-term synaptic facilitation by burst in APP/PS1 mice” value in [9] (setting [14]) is on record as “reversed”. Further, in [10], the “Aβ40/42 ratio during burst pattern of stimulation” value is listed as “increased”, the Aβ42 pattern dependency result was “without affecting”, the “[Aβ42]o during either single- or burst stimulation pattern” value is recorded as “uniformly inhibited” and the “burst pattern sensitivity of Aβ40” value is “increased”. The “pattern dependency of the Aβ40/42” value in experiment [10] is on record as “induced”. Moreover, the “[Aβ40]o” value in [10] (stronger during single spikes) was “inhibited”. For the same compound, in [2], the basal synaptic transmission entry was “rescued”, the “burst/single ratio … per spike (QfEPSP)” value is “rescued”, the “short-term facilitation (relative slopes of fEPSPs within the burst)” value is on record as “rescued” and the “slope of linear fit of input-output relationship (stimulation amplitude vs slope of fEPSP)” value worked out at 0.77±0.02. For the same compound, the “short-term synaptic facilitation during the burst” value in [2] (3 h pre-incubation, CGP54626 10 μM in ACSF, baclofen 1 μM in ↑Ca/Mg-slices, recordings in normal ACSF) is given as “rescued”. In addition, the total synaptic strength result in [2] (pretreatment of hippocampal slices with baclofen for 3 h before electrical stimulation) was “did not alter”. The “short-term synaptic facilitation during the burst” value in experiment [11] is “increased”. In addition, in experiment [12], the Aβ42 pattern dependency entry was “no effect”, the “burst pattern sensitivity of Aβ40” value was “increased” and the “pattern dependency of the Aβ40/42” value is on record as “induced”.
On to `C[C@H](NC[C@H](O)CP(=O)(O)CC1CCCCC1)c1ccc(Cl)c(Cl)c1` [CGP54626], for which, in [1], the “[Aβ40]o during single spikes” value was “did not affect”; the “[Aβ40]o during spike bursts” value was “reduced”; the “[Aβ42]o during either single spikes or bursts” value is listed as “did not affect”; the “difference between the Aβ40/42 ratio associated with single and burst patterns” value is “abolished”. In [1], the “pattern dependency of Aβ40” value was “reduced” and the “pattern dependency of the Aβ40/42 ratio” value is recorded as “reduced”. For the same compound, in [2], the “burst/single ratio … per spike (QfEPSP)” value is reported as “reduced”, the “short-term synaptic facilitation during the burst” value is recorded as “reduced” and the “slope of linear fit of input-output relationship (stimulation amplitude vs slope of fEPSP)” value was 1.13±0.06.
